Experimental data: patent US11672792B2, “Topical formulations comprising montelukast and combinations with mussel adhesive proteins” (ENLITISA (SHANGHAI) PHARMACEUTICAL CO., LTD, priority 2017, dated 2023)

Legend:
[1] = test system: carrageenan-induced acute inflammation in subcutaneous air pouch; assay: Air Pouch Model: Topical Administration Versus Oral Administration (Example 4); details: 200 μg/mouse, Mon-O intragastric; for Exudate volume / Pouch Wall Weight: others injected into pouch
[2] = test system: carrageenan-induced acute inflammation in subcutaneous air pouch; assay: Air Pouch Model II (Example 2); assay type: in vivo, mice; parameters: Fibroplastic proliferation score / Inflammation score / Activity score / Edema Score / Sum (of histology scores): scale not given here; details: Dex 400 μg, Dopamine 2 mg, MAP 250 μg, Mon 100 μg
Method: In Table 6, “Dex” is an abbreviation for dexamethasone and “Dopamine” is a 4 mg/mL aqueous solution of dopamine hydrochloride (Shanghai Aladdin Bio-Chem Technology Co., Ltd., Shanghai, China).
The histological specimens were analysed and an inflammation score, an activity score and a fibroplastic proliferation score were estimated as in Example 1 above and are tabulated in Table 9 below.

[3] = test system: carrageenan-induced acute inflammation in subcutaneous air pouch; assay: Air Pouch Model I (Example 1); assay type: in vivo, C57BL/6 mice; parameters: Activity score / Edema Score / Sum (of histology scores) / Fibroplastic proliferation score / Inflammation score: scale not given here; details: MAP 1.5 mg, Mon 200 μg; for Exudate volume / Pouch Wall Weight / Leukocyte count in exudate / Lymphocyte count in exudate / Monocyte count in exudate / Neutrophil count in exudate: doses/mouse: dexamethasone 200 μg; for Exudate volume / Pouch Wall Weight: 24 h after carrageenan
Method: Healthy adult male C57BL/6 mice weighing between 20 and 30 g were supplied by Changzhou Cvens Experimental Animal Co. Ltd (Changzhou, Jiangsu Province, China). Prior to any experiments being conducted, mice were housed under standardized conditions (at a constant temperature or 22 t 2° C., with alternating 12 hour periods of light and darkness), and were fed on a standard mouse diet with water, for about a week.
General anesthesia was induced using intraperitoneal 3% chloral hydrate (Sinopharm Chemical Reagent Co., Ltd., Shanghai, China); 1 mL/10 g of body weight). The hair of the entire dorsum was shaved and depilated 1 day before sterile air injection.
Air pouches were produced by subcutaneous injection of sterile air (5 mL) into the intrascapular area of the mice. After three days, another injection of air (3 mL) was performed to maintain the pouches. In order to induce acute inflammation, three days after this final injection, animals received an injection of sterile carrageenan solution (CP Kelco, Taixing, Jiangsu Province, China; 1%, 0.5 mL; produced by adding 0.1 g of carrageenan powder into a beaker containing 10 mL of 0.9% saline solution and stirring). Mice were pre-treated with test samples or vehicle 1 hour before and 23 hours after the carrageenan injection into the subcutaneous air pouch. Animals were sacrificed 24 hours after the carrageenan injection.
Skin biopsies were taken from the air pouches. A part of the biopsy was fixed in formalin (produced by adding ultra pure water to 50 mL of a 40% formaldehyde solution (Nanchang Rain Dew Experimental Equipment Co., Ltd., Nanchang, […] Provence, China) up to a total volume of 500 mL) and analyzed by histological embedding in paraffin wax, sectioning and staining.
The cavity was washed with 4 mL of sterile phosphate buffer solution (pH 7.4; prepared by dissolving 4 g of NaCl, 0.1 g of KCl, 1.749 g of Na2HPO4.12H2O and 0.1 g of KH2PO4 in ultrapure water, adjusting the pH to 7.4 with HCl and diluting with water to a total volume of 500 mL).
Exudates were collected and volumes were quantified. The total number of cells was determined with a haematocytometer (ADVIA 2120 Hematology System, Siemens Healthineers).
In Table 1, MAP is a Mefp-1 solution, which is was prepared as follows. Blue mussels were harvested in the coastal area of Shandong Province, China. Mussel feet were collected, cut into small pieces and homogenized in an extraction buffer comprising 5% acetic acid in 4 mol/L of aqueous urea. The crude extracts were collected after centrifuging and then purified by liquid chromatography. […] The solutions that were employed below were prepared by adding saline solution to this semi-finished product to obtain a concentration as described in Table 1.

[4] = test system: carrageenan-induced acute inflammation in subcutaneous air pouch; assay: Air Pouch Model: Combination of Montelukast (Example 5); assay type: in vivo, mice; details: MAP 1.5 mg, Mon 200 μg; for Exudate volume / Pouch Wall Weight: doses/mouse: dexamethasone 200 μg
[5] = others into pouch, listed as Mon-O
[6] = others into pouch, listed as Mon-T
[7] = dexamethasone 200 μg, listed as Mon (oral)
[8] = dexamethasone 200 μg, listed as Mon (topical)
[9] = pouch wall histology, dexamethasone 200 μg, listed as Mon (oral)
[10] = pouch wall histology, dexamethasone 200 μg, listed as Mon (topical)
[11] = dexamethasone 200 μg, listed as MON-O

In the case of `CC(C)(O)c1ccccc1CC[C@@H](SCC1(CC(=O)O)CC1)c1cccc(/C=C/c2ccc3ccc(Cl)cc3n2)c1` [Mon, Montelukast sodium], the “Exudate volume” value ([1]; listed as Mon-O) is reported as 3.69 ± 0.14 mL, the “Pouch Wall Weight” value ([1]; listed as Mon-O) is reported as 0.68 ± 0.08 g and the “Exudate volume” value ([1]; listed as Mon-T) is reported as 3.54 ± 0.09 mL. The “Pouch Wall Weight” value ([1]; listed as Mon-T) was 0.65 ± 0.06 g, the Activity score [1, 5] was 1.67 and the “Edema Score” value [1, 5] was 2.17. For the same molecule, the “IFN-γ in exudate (ELISA)” value [1, 5] was 557.95 ± 231.86, the “IL-6 in exudate (ELISA)” value [1, 5] was 500.25 ± 292.84 and the “Inflammation score” value [1, 5] was 2.33. The “Leukocyte count in exudate” value [1, 5] was 2.66e+06 mL⁻¹, the “Sum (of histology scores)” value [1, 5] was 6.17 and the “TNF-α in exudate (ELISA)” value [1, 5] was 146.3 ± 70.74. For the same molecule, the Activity score [1, 6] was 1.00, the “IFN-γ in exudate (ELISA)” value [1, 6] was 568.19 ± 316.70 and the “IL-6 in exudate (ELISA)” value [1, 6] was 312.05 ± 189.23. The “Inflammation score” value [1, 6] was 2.00, the “Leukocyte count in exudate” value [1, 6] was 2.19e+06 mL⁻¹ and the “TNF-α in exudate (ELISA)” value [1, 6] was 80.37 ± 61.72. The Fibroplastic proliferation score [2] was 0.00, the “IFN-γ in exudate (ELISA)” value [3, 7] was 2495 ± 711 and the “IL-6 in exudate (ELISA)” value [3, 7] was 8453 ± 9758. The “IL-10 in exudate (ELISA)” value [3, 7] was 52.59 ± 7.22, the “TNF-α in exudate (ELISA)” value [3, 7] was 39.41 ± 17.62 and the “IFN-γ in exudate (ELISA)” value [3, 8] was 1690 ± 725. For the same molecule, the “IL-6 in exudate (ELISA)” value [3, 8] was 2528 ± 1538, the “IL-10 in exudate (ELISA)” value [3, 8] was 68.18 ± 15.81 and the “TNF-α in exudate (ELISA)” value [3, 8] was 90.73 ± 109.02. The “Exudate volume” value ([3]; listed as Mon (oral)) was 3.58 ± 0.15 mL, the “Pouch Wall Weight” value ([3]; listed as Mon (oral)) was 0.67 ± 0.10 g and the “Exudate volume” value ([3]; listed as Mon (topical)) was 3.68 ± 0.15 mL. For the same molecule, the “Pouch Wall Weight” value ([3]; listed as Mon (topical)) was 0.66 ± 0.13 g, the “Leukocyte count in exudate” value ([3]; listed as Mon (oral)) was 2.38e+08 mL⁻¹ and the “Lymphocyte count in exudate” value ([3]; listed as Mon (oral)) was 1.98e+08 mL⁻¹. For the same molecule, the “Monocyte count in exudate” value ([3]; listed as Mon (oral)) was 7e+06 mL⁻¹, the “Neutrophil count in exudate” value ([3]; listed as Mon (oral)) was 2.1e+07 mL⁻¹ and the “Leukocyte count in exudate” value ([3]; listed as Mon (topical)) was 3.82e+08 mL⁻¹. For the same molecule, the “Lymphocyte count in exudate” value ([3]; listed as Mon (topical)) was 3.22e+08 mL⁻¹, the “Monocyte count in exudate” value ([3]; listed as Mon (topical)) was 1.7e+07 mL⁻¹ and the “Neutrophil count in exudate” value ([3]; listed as Mon (topical)) was 2.9e+07 mL⁻¹. The Activity score ([3]; pouch wall histology, dexamethasone 200 μg) was 1.00, the “Edema Score” value [3, 9] was 1.00 and the Fibroplastic proliferation score [3, 9] was 0.33. The “Sum (of histology scores)” value [3, 9] was 4.17, the Fibroplastic proliferation score [3, 10] was 0.83 and the Inflammation score [3, 10] was 2.17. For the same molecule, the “Sum (of histology scores)” value [3, 10] was 5.50, the Activity score ([4]; dexamethasone 200 μg) was 1.00 and the Fibroblast proliferation score ([4]; dexamethasone 200 μg) was 0.83. The Inflammation score ([4]; dexamethasone 200 μg) was 2.17, the “Leukocyte count in exudate” value ([4]; dexamethasone 200 μg) was 3.82e+06 mL⁻¹ and the “Lymphocyte count in exudate” value ([4]; dexamethasone 200 μg) was 3.22e+06 mL⁻¹. For the same molecule, the “Monocyte count in exudate” value ([4]; dexamethasone 200 μg) was 170000 mL⁻¹, the “Neutrophil count in exudate” value ([4]; dexamethasone 200 μg) was 290000 mL⁻¹ and the “Sum (of histology scores)” value ([4]; dexamethasone 200 μg) was 5.50. The “Edema Score” value [4, 11] was 1.00, the Fibroblast proliferation score [4, 11] was 0.33 and the “Leukocyte count in exudate” value [4, 11] was 2.38e+06 mL⁻¹. The “Lymphocyte count in exudate” value [4, 11] was 1.98e+06 mL⁻¹, the “Monocyte count in exudate” value [4, 11] was 70000 mL⁻¹ and the “Neutrophil count in exudate” value [4, 11] was 210000 mL⁻¹. The “Sum (of histology scores)” value [4, 11] was 4.17, the “IFN-γ in exudate (ELISA)” value [4, 7] was 2495 ± 711 and the “IL-6 in exudate (ELISA)” value [4, 7] was 8453 ± 9758. The “IL-10 in exudate (ELISA)” value [4, 7] was 52.59 ± 7.22, the “TNF-α in exudate (ELISA)” value [4, 7] was 39.41 ± 17.62 and the “IFN-γ in exudate (ELISA)” value [4, 8] was 1690 ± 725. The “IL-6 in exudate (ELISA)” value [4, 8] was 2528 ± 1538, the “IL-10 in exudate (ELISA)” value [4, 8] was 68.18 ± 15.81 and the “TNF-α in exudate (ELISA)” value [4, 8] was 90.73 ± 109.02. The “Exudate volume” value [4] was 3.68 ± 0.15 mL, the “Pouch Wall Weight” value [4] was 0.66 ± 0.13 g and the “Exudate volume” value ([4]; listed as MON-O) was 3.58 ± 0.15 mL. The “Pouch Wall Weight” value ([4]; listed as MON-O) was 0.67 ± 0.10 g.
